Reference: patent publication US8236762B2, “Peptide-cytotoxic conjugates” (IPSEN Pharma S.A.S., priority 2006, dated 2012)
Numbered stars: 1 amine (or outer) side, 2 acyl side, 3 side chain; on linkers, the order of the positions; unused ones are H or OH. Bridge positions count the residues as written; N and C are the ends. Square brackets hold non-standard residues; d marks the D form. Peptide text beside a SMILES is read from it. * marks the point of attachment. Pipz(1-CH2CO,4-CH2CH2NH) = O=C(CN1CCN(CCN[*:1])CC1)[*:2]; X1 = CC[C@@]1(O*)C(=O)OCc2c1cc1n(c2=O)Cc2cc3ccccc3nc2-1; Tyr(3-I) = N[C@@H](Cc1ccc(O)c(I)c1)C(=O)O; Glutaryl = O=C(CCCC(=O)[*:2])[*:1]; Suc = O=C(CCC(=O)[*:2])[*:1]; Nle = CCCC[C@H](N)C(=O)O; Abu = CC[C@H](N)C(=O)O; AEEA = NCCOCCOCC(=O)O; Ava = NCCCCC(=O)O; GABA = NCCCC(=O)O; βAla = NCCC(=O)O

Experiments:
[1] = Half-life determination in mouse plasma (LC-MS); type: in vitro ADME; settings: 37° C.
Experimental: (§1) Samples containing approximately 50 μg/ml up to and including approximately 500 μg/ml of test compound according to Formula IA or IB or II was added to 450 μl human or mouse plasma, vortexed briefly and incubated at 37° C. At various time intervals, e.g., 0, 0.5, 1, 2, 4, 6, 8, 24, 36 and 48 hours, 50 μl of the compound-plasma mixture was added to 150 μl acetonitrile in a microcentrifuge tube. The mixture was vortexed, centrifuged for 5 minutes at 10K RPM, and 135 μl of supernatant was transferred to an injection vial. The recovered supernatant was analyzed by using a liquid chromatography-mass spectrophotometer system (LC-MS) consisting of a Finnigan Deca XP® mass spectrometer with an ESI probe at the positive ion mode. HPLC separation was carried out on a Luna 3μ C8 (2)® 3×50 mm column with a gradient decreasing from 100% A to 80% B for 10 minutes at a flow rate of 0.25 ml/min. Buffer A was 0.1% acetic acid in water and buffer B was 0.1% acetic acid acetonitrile.

[2] = Half-life determination in human plasma (LC-MS); type: in vitro ADME; settings: 37° C.
Experimental: as §1

hSSTR-1 = molecular target: T1, hSSTR-1 (Homo sapiens, UniProt P30872); experiment: Somatostatin receptor radioligand binding, hSSTR-1 (CHO-K1 membranes); settings: read-out: Ki hSSTR1 ± (SEM)
T1 construct: expressed in transfected cells; host or cells: CHO-K1
T1 sequence (P30872 whole entry): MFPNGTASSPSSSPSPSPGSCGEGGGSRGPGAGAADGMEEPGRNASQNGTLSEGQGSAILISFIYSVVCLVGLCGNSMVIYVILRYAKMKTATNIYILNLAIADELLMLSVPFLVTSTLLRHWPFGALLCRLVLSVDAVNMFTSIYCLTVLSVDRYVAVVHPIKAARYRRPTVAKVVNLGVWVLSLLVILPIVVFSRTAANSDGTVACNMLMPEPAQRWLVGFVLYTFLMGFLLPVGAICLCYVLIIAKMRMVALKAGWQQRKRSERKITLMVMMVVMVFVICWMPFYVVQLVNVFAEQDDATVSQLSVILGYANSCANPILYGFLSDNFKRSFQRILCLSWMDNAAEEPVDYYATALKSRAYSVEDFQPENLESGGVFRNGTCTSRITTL
Experimental: Membranes for in vitro receptor binding assays were obtained by homogenizing (Polytron setting 6, 15 sec) CHO-K1 cells expressing human somatostatin receptor subtypes hSSTR-1, hSSTR-2, hSSTR-3, hSSTR-4 or hSSTR-5 in ice-cold 50 mM Tris-HCl. The homogenized cells were centrifuged twice at 39,000 g for 10 minutes with an intermediate resuspension in fresh buffer. The final pellets were resuspended in 10 mM Tris-HCl to prepare the cell membrane homogenate for use in the binding assay.
The final assay volume was 0.3 ml.
The cell membrane homogenate was incubated with the radioligands for 90 minutes at 25° C. The incubations were terminated by rapid filtration through GF/C filters pre-soaked in 0.3% polyethylenimine using a Brandel® filtration manifold (Gaithersberg, Md., U.S.A.). Each tube and filter was washed three times with 5-ml aliquots of ice-cold buffer. Specific binding was defined as the total radioligand bound minus that bound in the presence of 1000 nM SRIF-14 (for hSSTR-1, hSSTR-3, hSSTR-4 or hSSTR-5), or 1000 nM DPhe-c(Cys-Tyr-D-Trp-Lys-Abu-Cys)-Thr-NH2 for hSSTR-2.

hSSTR-5 = molecular target: T2, hSSTR-5 (Homo sapiens, UniProt P35346); experiment: Somatostatin receptor radioligand binding, hSSTR-5 (CHO-K1 membranes); settings: read-out: Ki hSSTR5 ± (SEM)
T2 construct: expressed in transfected cells; host or cells: CHO-K1
T2 sequence (P35346 whole entry): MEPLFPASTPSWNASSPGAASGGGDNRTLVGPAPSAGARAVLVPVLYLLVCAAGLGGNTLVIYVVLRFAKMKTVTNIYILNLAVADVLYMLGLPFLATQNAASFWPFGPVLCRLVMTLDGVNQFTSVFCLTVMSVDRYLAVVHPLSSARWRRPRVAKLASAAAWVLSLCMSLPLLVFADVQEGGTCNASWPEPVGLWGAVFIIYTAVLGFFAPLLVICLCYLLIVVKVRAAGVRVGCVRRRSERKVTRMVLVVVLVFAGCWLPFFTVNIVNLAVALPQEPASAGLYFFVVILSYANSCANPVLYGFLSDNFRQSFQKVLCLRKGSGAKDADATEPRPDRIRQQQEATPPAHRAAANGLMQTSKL
Experimental: (§2) For the hSSTR-1, hSSTR-3, and hSSTR-4 assays, aliquots of the membrane preparations were incubated for 90 minutes at 25° C. with 0.05 nM [^125I-Tyr11]SRIF-14 in 50 mM HEPES (pH 7.4) buffer containing 0.2% BSA and 5 mM MgCl2. The final assay volume was 0.3 ml. For the hSSTR-2 and hSSTR-5 assays, [^125I]-[4-(2-hydroxyethyl)]-1-piperazinylacetyl-D-Phe-c(Cys-Tyr-D-Trp-Lys-Abu-Cys)-Thr-NH2 (0.05 nM) and [^125I]-D-Phe-c(Cys-Tyr-D-Trp-Lys-Val-Cys)-Thr-NH2 were employed as the radioligands, respectively.

bombesin/GRP receptor = molecular target: T3, bombesin/GRP receptor (Rattus norvegicus, UniProt P52500); experiment: Bombesin/GRP radioligand binding (AR42J rat pancreas cell membranes); settings: read-out: Ki bombesin receptor ± (SEM)
T3 construct: AR42J rat pancreas cells expressing the native bombesin/GRP receptor; endogenous in cells; host or cells: AR42J rat pancreas cells
T3 sequence (P52500 whole entry): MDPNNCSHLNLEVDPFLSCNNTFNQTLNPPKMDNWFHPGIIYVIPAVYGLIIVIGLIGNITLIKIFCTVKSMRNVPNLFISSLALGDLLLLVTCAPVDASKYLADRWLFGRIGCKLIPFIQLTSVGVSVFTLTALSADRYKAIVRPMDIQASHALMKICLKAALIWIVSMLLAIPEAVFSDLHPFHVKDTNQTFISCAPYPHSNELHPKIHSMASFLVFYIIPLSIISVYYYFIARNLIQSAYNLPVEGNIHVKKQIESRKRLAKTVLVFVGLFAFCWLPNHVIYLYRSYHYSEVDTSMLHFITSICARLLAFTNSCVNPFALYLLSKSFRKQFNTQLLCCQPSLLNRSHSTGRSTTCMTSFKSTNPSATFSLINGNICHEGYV
Experimental: Membranes were prepared for radioligand binding studies by homogenization of AR42J rat pancreas cells expressing the native bombesin/GRP receptor in 20 ml of ice-cold 50 mM Tris-HCl with a Brinkman Polytron® (Westbury, N.Y., U.S.A.) at settings of 6, 15 seconds. The homogenates were washed twice by centrifugation (39,000 g/10 minutes) and the final pellets were resuspended in 50 mM Tris-HCl containing 2.5 mM MgCl2 and 0.1% BSA. […] The filters were then washed three times with 5-ml aliquots of ice-cold 50 mM Tris-HCl. The bound radioactivity trapped on the filters was counted by gamma spectrometry (Wallac LKB®, Gaithersburg, Md., U.S.A.).

hSSTR-2 = molecular target: T4, hSSTR-2 (Homo sapiens, UniProt P30874); experiment: Somatostatin receptor radioligand binding, hSSTR-2 (CHO-K1 membranes); settings: read-out: Ki hSSTR2 ± (SEM)
T4 construct: expressed in transfected cells; host or cells: CHO-K1
T4 sequence (P30874 whole entry): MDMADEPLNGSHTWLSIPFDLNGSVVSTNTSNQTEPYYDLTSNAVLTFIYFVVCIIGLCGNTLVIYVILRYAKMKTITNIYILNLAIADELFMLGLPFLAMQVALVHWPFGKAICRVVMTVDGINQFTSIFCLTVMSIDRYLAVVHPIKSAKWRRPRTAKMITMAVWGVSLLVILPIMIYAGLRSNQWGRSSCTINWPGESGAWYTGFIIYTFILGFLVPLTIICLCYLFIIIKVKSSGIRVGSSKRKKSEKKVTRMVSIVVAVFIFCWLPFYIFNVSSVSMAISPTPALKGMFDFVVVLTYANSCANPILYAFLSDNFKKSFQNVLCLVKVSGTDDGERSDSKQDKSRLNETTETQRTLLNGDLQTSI
Experimental: as §2

hSSTR-3 = molecular target: T5, hSSTR-3 (Homo sapiens, UniProt P32745); experiment: Somatostatin receptor radioligand binding, hSSTR-3 (CHO-K1 membranes); settings: read-out: Ki hSSTR3 ± (SEM)
T5 construct: expressed in transfected cells; host or cells: CHO-K1
T5 sequence (P32745 whole entry): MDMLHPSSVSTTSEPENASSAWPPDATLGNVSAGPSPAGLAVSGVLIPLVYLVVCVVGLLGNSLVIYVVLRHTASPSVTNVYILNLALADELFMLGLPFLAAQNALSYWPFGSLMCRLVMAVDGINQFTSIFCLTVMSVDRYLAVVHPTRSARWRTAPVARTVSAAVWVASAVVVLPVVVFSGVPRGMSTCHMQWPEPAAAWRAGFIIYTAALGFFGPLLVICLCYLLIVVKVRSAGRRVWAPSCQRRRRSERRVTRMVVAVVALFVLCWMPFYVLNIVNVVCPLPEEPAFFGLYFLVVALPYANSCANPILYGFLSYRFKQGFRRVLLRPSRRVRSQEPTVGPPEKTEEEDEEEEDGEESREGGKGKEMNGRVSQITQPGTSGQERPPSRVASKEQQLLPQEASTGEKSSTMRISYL
Experimental: as §2

hSSTR-4 = molecular target: T6, hSSTR-4 (Homo sapiens, UniProt P31391); experiment: Somatostatin receptor radioligand binding, hSSTR-4 (CHO-K1 membranes); settings: read-out: Ki hSSTR4 ± (SEM)
T6 construct: expressed in transfected cells; host or cells: CHO-K1
T6 sequence (P31391 whole entry): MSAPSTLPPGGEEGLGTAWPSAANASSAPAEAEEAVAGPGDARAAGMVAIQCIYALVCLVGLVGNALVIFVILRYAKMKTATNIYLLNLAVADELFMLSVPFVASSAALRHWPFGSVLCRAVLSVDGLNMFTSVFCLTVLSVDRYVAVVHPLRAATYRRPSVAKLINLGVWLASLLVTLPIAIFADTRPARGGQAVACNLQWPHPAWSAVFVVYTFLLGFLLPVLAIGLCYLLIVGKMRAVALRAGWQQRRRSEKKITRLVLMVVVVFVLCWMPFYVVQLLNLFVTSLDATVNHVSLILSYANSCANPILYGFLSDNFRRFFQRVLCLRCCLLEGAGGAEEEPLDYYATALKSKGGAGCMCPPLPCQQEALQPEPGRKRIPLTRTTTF
Experimental: as §2

Structure (SMILES): CC[C@@H]1NC(=O)[C@H](CCCCN)NC(=O)[C@@H](Cc2c[nH]c3ccccc23)NC(=O)[C@H](Cc2ccc(O)cc2)NC(=O)[C@@H](NC(=O)[C@@H](Cc2ccccc2)NC(=O)CN2CCN(CCNC(=O)COCCOCCNC(=O)COCCOCCNC(=O)COCCOCCNC(=O)COCCOCCNC(=O)CCC(=O)NCCCCCCCCC(=O)O[C@]3(CC)C(=O)OCc4c3cc3n(c4=O)Cc4cc5ccccc5nc4-3)CC2)CSSC[C@@H](C(=O)N[C@H](C(N)=O)[C@@H](C)O)NC1=O [Example 17, Camptothecin-rvAnc-Suc-(Doc)4-Aepa-D-Phe-cyclo(Cys-Tyr-D-Trp-Lys-Abu-Cys)-Thr-NH2]
- half-life [1]: 15.6 h
- half-life [2]: 28.6 h
- Ki (hSSTR-1): ≥ 1000 nM
- Ki (hSSTR-5): ≥ 1000 nM

Structure (SMILES): CC[C@@H]1NC(=O)[C@H](CCCCN)NC(=O)[C@@H](Cc2c[nH]c3ccccc23)NC(=O)[C@H](Cc2ccc(O)cc2)NC(=O)[C@@H](NC(=O)[C@@H](Cc2ccccc2)NC(=O)CN2CCN(CCNC(=O)COCCOCCNC(=O)COCCOCCNC(=O)COCCOCCNC(=O)COCCOCCNC(=O)CCC(=O)NCCCCCCC(=O)O[C@]3(CC)C(=O)OCc4c3cc3n(c4=O)Cc4cc5ccccc5nc4-3)CC2)CSSC[C@@H](C(=O)N[C@H](C(N)=O)[C@@H](C)O)NC1=O [Example 18, Camptothecin-rvAhp-Suc-(Doc)4-Aepa-D-Phe-cyclo(Cys-Tyr-D-Trp-Lys-Abu-Cys)-Thr-NH2]
- half-life [1]: 16.2 h
- half-life [2]: 8 h
- Ki (hSSTR-1): ≥ 1000 nM
- Ki (hSSTR-5): ≥ 1000 nM

Structure (SMILES): CCCC[C@H](NC(=O)[C@H](CC(C)C)NC(=O)[C@H](Cc1c[nH]cn1)NC(=O)CCNC(=O)[C@@H](NC(=O)[C@H](C)NC(=O)[C@H](Cc1c[nH]c2ccccc12)NC(=O)[C@H](CCC(N)=O)NC(=O)[C@H](CC(N)=O)NC(=O)CCCCNC(=O)CN1CCN(CCNC(=O)COCCOCCNC(=O)COCCOCCNC(=O)COCCOCCNC(=O)COCCOCCNC(=O)CCC(=O)NCC(=O)O[C@]2(CC)C(=O)OCc3c2cc2n(c3=O)Cc3cc4ccccc4nc3-2)CC1)C(C)C)C(N)=O [Example 24, Camptothecin-rvGly-Suc-(Doc)4-Aepa-Apn-Asn-Gln-Trp-Ala-Val-β-Ala-His-Leu-Nle-NH2] ({X1-Gly-Suc-AEEA-AEEA-AEEA-AEEA}-[Pipz(1-CH2CO,4-CH2CH2NH)][Ava]NQWAV[βAla]HL[Nle]-NH2)
- half-life [1]: 2.6 h
- half-life [2]: 4.6 h
- Ki (bombesin/GRP receptor): 4.07 nM

Structure (SMILES): CCCC[C@H](NC(=O)[C@H](CC(C)C)NC(=O)[C@H](Cc1c[nH]cn1)NC(=O)CCNC(=O)[C@@H](NC(=O)[C@H](C)NC(=O)[C@H](Cc1c[nH]c2ccccc12)NC(=O)[C@H](CCC(N)=O)NC(=O)[C@@H](Cc1ccc(O)cc1)NC(=O)[C@@H](CO)NC(=O)CN1CCN(CCNC(=O)COCCOCCNC(=O)COCCOCCNC(=O)COCCOCCNC(=O)COCCOCCNC(=O)CCC(=O)NCC(=O)O[C@]2(CC)C(=O)OCc3c2cc2n(c3=O)Cc3cc4ccccc4nc3-2)CC1)C(C)C)C(N)=O [Example 27, Camptothecin-rvGly-Suc-(Doc)4-Aepa-D-Ser-D-Tyr-Gln-Trp-Ala-Val-β-Ala-His-Leu-Nle-NH2] ({X1-Gly-Suc-AEEA-AEEA-AEEA-AEEA}-[Pipz(1-CH2CO,4-CH2CH2NH)][dS][dY]QWAV[βAla]HL[Nle]-NH2)
- half-life [1]: 3.8 h
- half-life [2]: 4.5 h
- Ki (bombesin/GRP receptor): 3.96 nM

Structure (SMILES): CC[C@@H]1NC(=O)[C@H](CCCCN)NC(=O)[C@@H](Cc2c[nH]c3ccccc23)NC(=O)[C@H](Cc2ccc(O)c(I)c2)NC(=O)[C@@H](NC(=O)[C@@H](Cc2ccc(O)cc2)NC(=O)[C@@H](Cc2ccc(O)cc2)NC(=O)[C@H](CCCCN)NC(=O)COCCOCCNC(=O)COCCOCCNC(=O)COCCOCCNC(=O)COCCOCCNC(=O)CCCC(=O)NCC(=O)O[C@]2(CC)C(=O)OCc3c2cc2n(c3=O)Cc3cc4ccccc4nc3-2)CSSC[C@@H](C(=O)N[C@H](C(N)=O)[C@@H](C)O)NC1=O [Example 3, Camptothecin-rvGly-Glut-(Doc)4-Lys-D-Tyr-D-Tyr-c(Cys-3-(I)Tyr-D-Trp-Lys-Abu-Cys)-Thr-NH2] ({X1-Gly-Glutaryl-AEEA-AEEA-AEEA-AEEA}-K[dY][dY]C[Tyr(3-I)][dW]K[Abu]CT-NH2; disulfide 4-9)
- half-life [1]: 5.7 h
- half-life [2]: 3.8 h
- Ki (hSSTR-1): ≥ 1000 nM
- Ki (hSSTR-2): 0.1 nM
- Ki (hSSTR-3): 94 nM
- Ki (hSSTR-4): ≥ 1000 nM
- Ki (hSSTR-5): 3.86 nM

Structure (SMILES): CC[C@@H]1NC(=O)[C@H](CCCCN)NC(=O)[C@@H](Cc2c[nH]c3ccccc23)NC(=O)[C@H](Cc2ccc(O)c(I)c2)NC(=O)[C@@H](NC(=O)[C@@H](Cc2ccc(O)cc2)NC(=O)[C@@H](Cc2ccc(O)cc2)NC(=O)[C@H](CCCCN)NC(=O)COCCOCCNC(=O)COCCOCCNC(=O)COCCOCCNC(=O)COCCOCCNC(=O)COCCOCCNC(=O)COCCOCCNC(=O)CCCC(=O)NCC(=O)O[C@]2(CC)C(=O)OCc3c2cc2n(c3=O)Cc3cc4ccccc4nc3-2)CSSC[C@@H](C(=O)N[C@H](C(N)=O)[C@@H](C)O)NC1=O [Example 2, Camptothecin-rvGly-Glut-(Doc)6-Lys-D-Tyr-D-Tyr-c(Cys-3-(I)Tyr-D-Trp-Lys-Abu-Cys)-Thr-NH2] ({X1-Gly-Glutaryl-AEEA-AEEA-AEEA-AEEA-AEEA-AEEA}-K[dY][dY]C[Tyr(3-I)][dW]K[Abu]CT-NH2; disulfide 4-9)
- half-life [1]: 4.6 h
- half-life [2]: 2.2 h
- Ki (hSSTR-1): ≥ 1000 nM
- Ki (hSSTR-2): 0.36 nM
- Ki (hSSTR-3): 125 nM
- Ki (hSSTR-4): ≥ 1000 nM
- Ki (hSSTR-5): 3 nM

Structure (SMILES): CCCC[C@H](NC(=O)[C@H](CC(C)C)NC(=O)[C@H](Cc1c[nH]cn1)NC(=O)CCNC(=O)[C@@H](NC(=O)[C@H](C)NC(=O)[C@H](Cc1c[nH]c2ccccc12)NC(=O)[C@H](CCC(N)=O)NC(=O)[C@H](CCCC)NC(=O)CN1CCN(CCNC(=O)COCCOCCNC(=O)COCCOCCNC(=O)COCCOCCNC(=O)COCCOCCNC(=O)CCC(=O)NCC(=O)O[C@]2(CC)C(=O)OCc3c2cc2n(c3=O)Cc3cc4ccccc4nc3-2)CC1)C(C)C)C(N)=O [Example 20, Camptothecin-rvGly-Suc-(Doc)4-Aepa-Nle-Gln-Trp-Ala-Val-β-Ala-His-Leu-Nle-NH2] ({X1-Gly-Suc-AEEA-AEEA-AEEA-AEEA}-[Pipz(1-CH2CO,4-CH2CH2NH)][Nle]QWAV[βAla]HL[Nle]-NH2)
- half-life [1]: 2.8 h
- half-life [2]: 4.8 h
- Ki (bombesin/GRP receptor): 4.57 nM

Structure (SMILES): CCCC[C@H](NC(=O)[C@H](CC(C)C)NC(=O)[C@H](Cc1c[nH]cn1)NC(=O)CCNC(=O)[C@@H](NC(=O)[C@H](C)NC(=O)[C@H](Cc1c[nH]c2ccccc12)NC(=O)[C@H](CCC(N)=O)NC(=O)CCCNC(=O)[C@H](CC(C)C)NC(=O)CN1CCN(CCNC(=O)COCCOCCNC(=O)COCCOCCNC(=O)COCCOCCNC(=O)COCCOCCNC(=O)CCC(=O)NCC(=O)O[C@]2(CC)C(=O)OCc3c2cc2n(c3=O)Cc3cc4ccccc4nc3-2)CC1)C(C)C)C(N)=O [Example 22, Camptothecin-rvGly-Suc-(Doc)4-Aepa-Leu-Gaba-Gln-Trp-Ala-Val-β-Ala-His-Leu-Nle-NH2] ({X1-Gly-Suc-AEEA-AEEA-AEEA-AEEA}-[Pipz(1-CH2CO,4-CH2CH2NH)]L[GABA]QWAV[βAla]HL[Nle]-NH2)
- half-life [1]: 2.1 h
- half-life [2]: 1.8 h
- Ki (bombesin/GRP receptor): 18.2 nM
